Assay results published in patent publication US20090246276A1, “Pharmaceutical Compositions” (priority 2008, published 2009).
Counter-ions that a name gives are not always drawn.

Tests used:
[1] = In-vitro dissolution, 900 ml medium (0.1N HCl, pH 4.5 acetate buffer, pH 6.8 or pH 7.5 phosphate buffer), USP Apparatus 1, 75 rpm, 37° C.; assay type: physicochemical; settings: for % Released (Bi-layer Tablets): Example 16 coated bi-layer tablet; for % Released (Homogenous Tablets): Example 19 tablet; for % Release: 900 ml Phosphate Buffer, pH 7.5, Apparatus 1, 75 rpm, 37 C.
Experimental: The dissolution profile of the above pharmaceutical composition was determined under the dissolution conditions described below in Tables 1A, 1B, and 1C.

[2] = Solubility (37° C.) in 0.1N HCl, pH 4.5, pH 6.8; assay type: physicochemical; parameters: Solubility (37° C.): unit not given here; settings: for Solubility (37° C.): hydrochloride; for solubility: 37 °C
[3] = Example 22: effect of bupropion (Wellbutrin XL 300 mg) on steady-state pharmacokinetics of citalopram (Celexa 20 mg)
[4] = steady-state dosing of Celexa 20 mg alone
[5] = steady-state dosing of Celexa 20 mg plus Wellbutrin XL 300 mg

CC(NC(C)(C)C)C(=O)c1cccc(Cl)c1 (stereo not drawn) [Bupropion HCl, bupropion hydrochloride]
% Released (Bi-layer Tablets) ([1]; 0.1N HCl, 1 hr): 16.36% | % Released (Bi-layer Tablets) ([1]; 0.1N HCl, 2 hr): 33.56% | % Released (Bi-layer Tablets) ([1]; 0.1N HCl, 3 hr): 49.54% | % Released (Bi-layer Tablets) ([1]; 0.1N HCl, 4 hr): 65.00% | % Released (Bi-layer Tablets) ([1]; 0.1N HCl, 5 hr): 79.63% | % Released (Bi-layer Tablets) ([1]; 0.1N HCl, 6 hr): 88.97% | % Released (Bi-layer Tablets) ([1]; 0.1N HCl, 7 hr): 94.82% | % Released (Bi-layer Tablets) ([1]; 0.1N HCl, 8 hr): 97.06% | % Released (Homogenous Tablets) ([1]; 0.1N HCl, 1 hr): 16.63% | % Released (Homogenous Tablets) ([1]; 0.1N HCl, 2 hr): 39.40% | % Released (Homogenous Tablets) ([1]; 0.1N HCl, 3 hr): 60.60% | % Released (Homogenous Tablets) ([1]; 0.1N HCl, 4 hr): 78.36% | % Released (Homogenous Tablets) ([1]; 0.1N HCl, 5 hr): 90.30% | % Released (Homogenous Tablets) ([1]; 0.1N HCl, 6 hr): 96.38% | % Released (Homogenous Tablets) ([1]; 0.1N HCl, 7 hr): 99.14% | % Released (Homogenous Tablets) ([1]; 0.1N HCl, 8 hr): 100.26% | Solubility (37° C.) ([2]; 0.1N HCl): 416 | Solubility (37° C.) ([2]; pH 4.5): 437 | Solubility (37° C.) ([2]; pH 6.8): 437

CN(C)CCCC1(c2ccc(F)cc2)OCc2cc(C#N)ccc21 (stereo not drawn) [Citalopram, citalopram]
AUC ([3]; both, human, in vivo, 20 mg): 1220 ng·h/mL | Cmax ([3]; both, human, in vivo, 20 mg): 67.9 ng/mL | MRT ([3]; both, human, in vivo, 20 mg): 48.6 h | Tmax ([3]; both, human, in vivo, 20 mg): 3.96 h | Vd/F ([3]; both, human, in vivo, 20 mg): 750 L | CL/F, Mean [3, 4]: 17.66 L/h | Cavg, Mean [3, 4]: 50.8 ng/mL | Cmin, Mean [3, 4]: 39.5 ng/mL | Fluctuation, Mean [3, 4]: 57.22% | Swing, Mean [3, 4]: 75.55% | CL/F, Mean [3, 5]: 11.04 L/h | Cavg, Mean [3, 5]: 78.2 ng/mL | Cmin, Mean [3, 5]: 61.6 ng/mL | Fluctuation, Mean [3, 5]: 48.46% | Swing, Mean [3, 5]: 62.15%

CNCCC[C@]1(c2ccc(F)cc2)OCc2cc(C#N)ccc21 [Desmethylcitalopram, desmethylcitalopram]
AUC0-τ, Mean [3, 4]: 445.9 ng·h/mL | Cavg, Mean [3, 4]: 18.6 ng/mL | Cmax, Mean [3, 4]: 21.7 ng/mL | Cmin, Mean [3, 4]: 16.3 ng/mL | Fluctuation, Mean [3, 4]: 28.93% | M/P Ratio, Mean [3, 4]: 0.4062 | MRT, Mean [3, 4]: 98.54 h | Swing, Mean [3, 4]: 33.09% | Tmax, Mean [3, 4]: 5.46 h | AUC0-τ, Mean [3, 5]: 485.2 ng·h/mL | Cavg, Mean [3, 5]: 20.2 ng/mL | Cmax, Mean [3, 5]: 23.6 ng/mL | Cmin, Mean [3, 5]: 17.3 ng/mL | Fluctuation, Mean [3, 5]: 30.39% | M/P Ratio, Mean [3, 5]: 0.2814 | MRT, Mean [3, 5]: 85.78 h | Swing, Mean [3, 5]: 35.98% | Tmax, Mean [3, 5]: 7.12 h

N#Cc1ccc2c(c1)COC2(CCCN)c1ccc(F)cc1 (stereo not drawn) [Didesmethylcitalopram, didesmethylcitalopram]
AUC0-τ, Mean [3, 4]: 92.04 ng·h/mL | Cavg, Mean [3, 4]: 3.84 ng/mL | Cmax, Mean [3, 4]: 4.40 ng/mL | Cmin, Mean [3, 4]: 3.42 ng/mL | Fluctuation, Mean [3, 4]: 26.43% | M/P Ratio, Mean [3, 4]: 0.09587 | MRT, Mean [3, 4]: 258.96 h | Swing, Mean [3, 4]: 29.97% | Tmax, Mean [3, 4]: 6.41 h

OCCOCCN1CCN(C2=Nc3ccccc3Sc3ccccc32)CC1 [Quetiapine Fumarate, quetiapine fumarate]
% Released ([1]; Example 17 tablet, 0.1N HCl, 1 hr): 18% | % Released ([1]; Example 17 tablet, 0.1N HCl, 2 hr): 39% | % Released ([1]; Example 17 tablet, 0.1N HCl, 4 hr): 69% | % Released ([1]; Example 17 tablet, 0.1N HCl, 8 hr): 98% | % Released ([1]; Example 17 tablet, 0.1N HCl, 12 hr): 97% | % Released ([1]; Example 17 tablet, 0.1N HCl, 16 hr): 96% | % Released ([1]; Example 17 tablet, pH 6.8 phosphate buffer, 1 hr): 2% | % Released ([1]; Example 17 tablet, pH 6.8 phosphate buffer, 2 hr): 10% | % Released ([1]; Example 17 tablet, pH 6.8 phosphate buffer, 4 hr): 41% | % Released ([1]; Example 17 tablet, pH 6.8 phosphate buffer, 8 hr): 76% | % Released ([1]; Example 17 tablet, pH 6.8 phosphate buffer, 12 hr): 93% | % Released ([1]; Example 17 tablet, pH 6.8 phosphate buffer, 16 hr): 95% | solubility ([2]; 0.1N HCl, simulated gastric fluid): 41000 µg/mL | solubility ([2]; pH 4.5, aqueous buffer, pH 4.5): 3000 µg/mL | solubility ([2]; pH 6.8, aqueous buffer, pH 6.8): 300 µg/mL

COc1cccc(C2(O)CCCCC2CN(C)C)c1 (stereo not drawn) [Tramadol HCl, tramadol HCl]
% Released ([1]; Example 20 tablet, 0.1N HCl, 0.5 hr): 10% | % Released ([1]; Example 20 tablet, 0.1N HCl, 1 hr): 33% | % Released ([1]; Example 20 tablet, 0.1N HCl, 2 hr): 73% | % Released ([1]; Example 20 tablet, 0.1N HCl, 3 hr): 96% | % Released ([1]; Example 20 tablet, 0.1N HCl, 4 hr): 104% | % Released ([1]; Example 20 tablet, 0.1N HCl, 5 hr): 106% | % Released ([1]; Example 20 tablet, 0.1N HCl, 6 hr): 106% | % Released ([1]; Example 20 tablet, 0.1N HCl, 8 hr): 106% | % Released ([1]; Example 20 tablet, 0.1N HCl, 10 hr): 105% | % Released ([1]; Example 20 tablet, 0.1N HCl, 12 hr): 105% | % Released ([1]; Example 20 tablet, pH 6.8 phosphate buffer, 0.5 hr): 9% | % Released ([1]; Example 20 tablet, pH 6.8 phosphate buffer, 1 hr): 32% | % Released ([1]; Example 20 tablet, pH 6.8 phosphate buffer, 2 hr): 75% | % Released ([1]; Example 20 tablet, pH 6.8 phosphate buffer, 3 hr): 98% | % Released ([1]; Example 20 tablet, pH 6.8 phosphate buffer, 4 hr): 105% | % Released ([1]; Example 20 tablet, pH 6.8 phosphate buffer, 5 hr): 107% | % Released ([1]; Example 20 tablet, pH 6.8 phosphate buffer, 6 hr): 107% | % Released ([1]; Example 20 tablet, pH 6.8 phosphate buffer, 8 hr): 107% | % Released ([1]; Example 20 tablet, pH 6.8 phosphate buffer, 10 hr): 107% | % Released ([1]; Example 20 tablet, pH 6.8 phosphate buffer, 12 hr): 107% | % Release ([1]; Example 27 controlled release tablet (batch 1258-171), 2 hrs): 51% | % Release ([1]; Example 27 controlled release tablet (batch 1258-171), 4 hrs): 70% | % Release ([1]; Example 27 controlled release tablet (batch 1258-171), 8 hrs): 96% | % Release ([1]; Example 27 controlled release tablet (batch 1258-171), 10 hrs): 100% | % Release ([1]; Example 27 controlled release tablet (batch 1258-171), 16 hrs): 100% | % Release ([1]; Example 28 controlled release tablet (batch 1258-175), 2 hrs): 0% | % Release ([1]; Example 28 controlled release tablet (batch 1258-175), 4 hrs): 7% | % Release ([1]; Example 28 controlled release tablet (batch 1258-175), 8 hrs): 61% | % Release ([1]; Example 28 controlled release tablet (batch 1258-175), 10 hrs): 74% | % Release ([1]; Example 28 controlled release tablet (batch 1258-175), 16 hrs): 84% | % Released ([1]; Example 29 controlled release tablet (batch no. 08070T), 900 ml 0.1N HCl, USP Apparatus 1, 75 rpm, 37° C., 0.5 hr): 18% | % Released ([1]; Example 29 controlled release tablet (batch no. 08070T), 900 ml 0.1N HCl, USP Apparatus 1, 75 rpm, 37° C., 1 hr): 28% | % Released ([1]; Example 29 controlled release tablet (batch no. 08070T), 900 ml 0.1N HCl, USP Apparatus 1, 75 rpm, 37° C., 2 hr): 42% | % Released ([1]; Example 29 controlled release tablet (batch no. 08070T), 900 ml 0.1N HCl, USP Apparatus 1, 75 rpm, 37° C., 3 hr): 53% | % Released ([1]; Example 29 controlled release tablet (batch no. 08070T), 900 ml 0.1N HCl, USP Apparatus 1, 75 rpm, 37° C., 4 hr): 62% | % Released ([1]; Example 29 controlled release tablet (batch no. 08070T), 900 ml 0.1N HCl, USP Apparatus 1, 75 rpm, 37° C., 5 hr): 70% | % Released ([1]; Example 29 controlled release tablet (batch no. 08070T), 900 ml 0.1N HCl, USP Apparatus 1, 75 rpm, 37° C., 6 hr): 76% | % Released ([1]; Example 29 controlled release tablet (batch no. 08070T), 900 ml 0.1N HCl, USP Apparatus 1, 75 rpm, 37° C., 8 hr): 86% | % Released ([1]; Example 29 controlled release tablet (batch no. 08070T), 900 ml 0.1N HCl, USP Apparatus 1, 75 rpm, 37° C., 10 hr): 93% | % Released ([1]; Example 29 controlled release tablet (batch no. 08070T), 900 ml 0.1N HCl, USP Apparatus 1, 75 rpm, 37° C., 12 hr): 97% | % Released ([1]; Example 29 controlled release tablet (batch no. 08070T), 900 ml pH 6.8 phosphate buffer, USP Apparatus 1, 75 rpm, 37° C., 0.5 hr): 19% | % Released ([1]; Example 29 controlled release tablet (batch no. 08070T), 900 ml pH 6.8 phosphate buffer, USP Apparatus 1, 75 rpm, 37° C., 1 hr): 29% | % Released ([1]; Example 29 controlled release tablet (batch no. 08070T), 900 ml pH 6.8 phosphate buffer, USP Apparatus 1, 75 rpm, 37° C., 2 hr): 44% | % Released ([1]; Example 29 controlled release tablet (batch no. 08070T), 900 ml pH 6.8 phosphate buffer, USP Apparatus 1, 75 rpm, 37° C., 3 hr): 55% | % Released ([1]; Example 29 controlled release tablet (batch no. 08070T), 900 ml pH 6.8 phosphate buffer, USP Apparatus 1, 75 rpm, 37° C., 4 hr): 65% | % Released ([1]; Example 29 controlled release tablet (batch no. 08070T), 900 ml pH 6.8 phosphate buffer, USP Apparatus 1, 75 rpm, 37° C., 5 hr): 72% | % Released ([1]; Example 29 controlled release tablet (batch no. 08070T), 900 ml pH 6.8 phosphate buffer, USP Apparatus 1, 75 rpm, 37° C., 6 hr): 79% | % Released ([1]; Example 29 controlled release tablet (batch no. 08070T), 900 ml pH 6.8 phosphate buffer, USP Apparatus 1, 75 rpm, 37° C., 8 hr): 90% | % Released ([1]; Example 29 controlled release tablet (batch no. 08070T), 900 ml pH 6.8 phosphate buffer, USP Apparatus 1, 75 rpm, 37° C., 10 hr): 98% | % Released ([1]; Example 29 controlled release tablet (batch no. 08070T), 900 ml pH 6.8 phosphate buffer, USP Apparatus 1, 75 rpm, 37° C., 12 hr): 102%
